# Test results reported in ChEMBL document CHEMBL1201862, “PubChem BioAssay data set” (2004).
# Active and inactive are the calls of the source.
# Assays:
# [1] = molecular target: RNA-editing ligase 1, mitochondrial (Trypanosoma brucei brucei, UniProt P86926); assay: TbREL1 ligase inhibitors, dose response, biochemical, fluorescence, Trypanosoma brucei (AID 1117295); type: functional
# [2] = A549 cell cytotoxicity, dose response, cytotoxicity control, 24 h, CellTiter-Glo luminescence, cherry-picks (AID 1053115); type: functional, cell-based; details: A549, 24 h
# [3] = P. falciparum Dd2 growth inhibitors, dose response, SYBR Green, dry powder samples (AID 1159566); type: functional, cell-based;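 also: potency for growth inhibition with lower SYBR green DNA signal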
# [4] = Plasmodium falciparum Dd2 Sybr green parasite growth Measured in Cell-Based and Microorganism Combination System Using Plate Reader - 2153-01_Inhibitor_Dose_DryPowder_Activity_Set3.; type: functional
# [5] = HepG2 cell cytotoxicity, dose response, cytotoxicity control, plate reader, dry powder samples (AID 1159569); type: functional, cell-based;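 also: inhibitor potency with signal falling toward the positive control level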
# [6] = P. falciparum ATP4 D1247Y mutant growth inhibitors, dose response, NITD609-resistant line, SYBR Green, dry powder (AID 1159571); type: functional, cell-based;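 also: parasites synchronized at ring stage by sorbitol before testing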
# [7] = P. falciparum Dd2 growth inhibitors, dose response, SYBR Green, cherry-picked samples (AID 1159567); type: functional, cell-based
# [8] = P. falciparum 3D7-ScDHODH growth inhibitors, dose response, SYBR Green, dry powder samples (AID 1159570); type: functional, cell-based;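 also: parasite growth measured after 72 hours of compound exposure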
# [9] = molecular target: T1, Probable nicotinate-nucleotide adenylyltransferase (Staphylococcus aureus (strain N315), UniProt P65502); type: functional, Staphylococcus aureus subsp. aureus N315; details: read-out: IC50_Mean;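 as to IC50 Mean: confirmatory dose-response retesting of NadD inhibitor hits first found in an ultra-high-throughput screen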
# T1 sequence (P65502 whole entry): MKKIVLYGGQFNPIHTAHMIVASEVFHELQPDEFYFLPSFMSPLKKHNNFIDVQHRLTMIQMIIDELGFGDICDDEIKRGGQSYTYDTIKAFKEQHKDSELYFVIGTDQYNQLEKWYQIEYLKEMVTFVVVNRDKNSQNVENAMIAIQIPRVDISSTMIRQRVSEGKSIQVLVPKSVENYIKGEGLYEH
# [10] = cytotoxicity in OVCAR4 cells, dose response, cytotoxicity control for PAX8 inhibitor project, cell-based, plate reader, dry powder, SA11 (AID 743150); type: functional; details: OVCAR-4
# [11] = inhibitors of intracellular T. cruzi replication, confirmation, NIH3T3 host cells, beta-gal luminescence (AID 2044); type: functional, cell-based;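 also: intracellular parasites grown in NIH/3T3 mouse fibroblasts as host cells; luminescent beta-galactosidase reporter signal from transgenic T. cruzi replicating inside host cells; inhibitors lower the luminescence signal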
# [12] = HepG2 cell cytotoxicity, dose response, cytotoxicity control for Shn3 inhibitor project, CellTiter-Glo, cherry-picked (AID 624134); type: functional, cell-based
# [13] = cytotoxicity dependent on PAX8, dose response, cell-based, plate reader, dry powder (AID 743049); type: functional
# [14] = cytotoxicity toward NIH3T3 fibroblasts, dose response, counter-screen, cell-based, ATP luminescence, mouse fibroblasts (AID 2010); type: functional;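 also: cells exposed to compound for about 90 hours before reading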
# Paired box protein Pax-8 = Paired box protein Pax-8 (Homo sapiens, UniProt Q06710); assay: inhibitors of PAX8-driven TPO luciferase reporter, dose response, RMG-I cells, cherry-pick (AID 687027); type: functional, cell-based;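 also: luciferase reporter driven by Pax8 target thyroperoxidase promoter measured by SteadyGlo luminescence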
# Sequence of Paired box protein Pax-8 (Q06710 whole entry): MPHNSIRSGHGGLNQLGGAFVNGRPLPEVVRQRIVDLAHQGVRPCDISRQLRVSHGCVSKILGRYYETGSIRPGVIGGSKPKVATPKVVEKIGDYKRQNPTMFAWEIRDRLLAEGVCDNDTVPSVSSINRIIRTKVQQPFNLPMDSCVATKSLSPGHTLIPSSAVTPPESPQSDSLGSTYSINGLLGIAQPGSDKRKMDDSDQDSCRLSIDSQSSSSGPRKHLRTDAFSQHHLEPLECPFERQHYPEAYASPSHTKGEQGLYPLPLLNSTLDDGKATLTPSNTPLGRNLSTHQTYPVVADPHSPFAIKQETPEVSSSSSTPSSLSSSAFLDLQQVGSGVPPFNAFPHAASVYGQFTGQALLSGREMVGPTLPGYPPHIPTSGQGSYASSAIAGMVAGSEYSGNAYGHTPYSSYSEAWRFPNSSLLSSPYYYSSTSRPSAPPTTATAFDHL
# [15] = A2780 ovarian cancer cell cytotoxicity, dose response, cytotoxicity control, plate reader, dry powder samples (AID 743046); type: functional, cell-based
# [16] = Shn3 3'UTR reporter inhibitors, dose response, cell-based, Clone20 osteoblasts, firefly luciferase, cherry-picked (AID 624132); type: functional;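 also: firefly luciferase luminescence from reporter carrying the Shn3 3'UTR in osteoblasts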
# [17] = molecular target: T1, Probable nicotinate-nucleotide adenylyltransferase; type: functional, Staphylococcus aureus subsp. aureus N315
# [18] = cytotoxicity in COV434 cells, dose response, cytotoxicity control for PAX8 inhibitor project, cell-based, plate reader, dry powder, SA7 (AID 743145); type: functional
# INS1 = assay: beta cell apoptosis inhibitors, cytokine rescue, dose response, luminescence, retest (AID 449756); type: functional, cell-based; details: Rattus norvegicus;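 also: cell death triggered by IL-1 beta plus TNF-alpha plus IFN-gamma mixture; protective hits raise ATP signal compared with cytokine alone wells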
# [19] = cytotoxicity in OV-90 ovarian cancer cells, dose response, PAX8 inhibitor project, cell-based, plate reader, dry powder, SA8 (AID 743149); type: functional
# [20] = tested on: Streptococcus sp. 'group A'; assay: growth inhibition of control SK(-) GAS strain, dose response, counter-screen for streptokinase expression inhibitor project, luminescence, kanamycin, BacTiterGlo, confirmation (AID 1900); type: functional, organism-based
# [21] = IGROV1 ovarian cancer cell cytotoxicity, dose response, PAX8 inhibitor project, plate reader, dry powder samples (AID 743043); type: functional, cell-based; details: IGROV-1
# [22] = PAX5 activity inhibitors, dose response, selectivity assay for PAX8 inhibitor project, cell-based, plate reader, dry powder samples (AID 743047); type: functional;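 also: HEK293 cells carrying a Pax5 driven CD19 promoter luciferase reporter; potency of inhibitors that lower reporter luminescence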
# [23] = control 3'UTR Renilla luciferase suppression, dose response, counter-screen for Shn3 inhibitor project, cell-based, Clone20-Shn3RL, cherry-picked (AID 624133); type: functional
# cells [24] = type: functional, cell-based
# [25] = NIH:OVCAR-3 ovarian cancer cell cytotoxicity, dose response, PAX8 inhibitor project, plate reader, dry powder samples (AID 743044); type: functional, cell-based
# cells [26] = type: functional, cell-based; remark: listed apart in the source
# [27] = molecular target: T2, Type-1 angiotensin II receptor (Homo sapiens, UniProt P30556); assay: AT1 receptor agonists, dose response, selectivity assay for APJ receptor agonist project, cell-based, uHTS hits (AID 488865); type: functional;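 also: beta-arrestin recruitment to AT1 measured by enzyme fragment complementation luminescence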
# T2 sequence (P30556 whole entry): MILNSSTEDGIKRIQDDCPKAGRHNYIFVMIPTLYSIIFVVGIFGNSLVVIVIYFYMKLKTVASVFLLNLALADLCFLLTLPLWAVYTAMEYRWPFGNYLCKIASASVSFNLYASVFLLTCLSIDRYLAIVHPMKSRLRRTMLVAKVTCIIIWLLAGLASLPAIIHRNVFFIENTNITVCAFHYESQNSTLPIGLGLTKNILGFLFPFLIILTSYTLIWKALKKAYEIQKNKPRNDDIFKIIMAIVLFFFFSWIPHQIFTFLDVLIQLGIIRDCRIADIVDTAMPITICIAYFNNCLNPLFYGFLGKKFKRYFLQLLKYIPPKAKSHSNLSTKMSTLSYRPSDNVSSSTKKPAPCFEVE
# Streptococcus = assay: Group A Streptococcus viability loss, dose response, counter-screen for streptokinase expression inhibitor project, luminescence, BacTiterGlo (AID 1915); type: functional, organism-based;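 also: potency for reduction of bacterial viability or growth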
# [28] = PAX2 cell-based inhibition, dose response, selectivity assay for PAX8 inhibitor project, plate reader, dry powder samples (AID 743048); type: functional;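 also: HEK293 cells carrying a WT1 promoter luciferase reporter driven by expressed Pax2; potency is for inhibition of Pax2 driven reporter signal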
# [29] = cytotoxicity in COV362 ovarian cancer cells, dose response, cytotoxicity control for PAX8 inhibitor project, cell-based, plate reader, dry powder, SA12 (AID 743144); type: functional
# [30] = luciferase signal loss, tTA control fusion, HeLa F-luc tTA cells, dry powder, counter-screen for HIV Env fusion inhibitor project, dose response (AID 687021); type: functional, cell-based
# [31] = HIV Env cell-cell fusion inhibitors, dose response, HIV entry, plate reader, dry powder (AID 687023); type: functional, cell-based
# Sequence of RNA-editing ligase 1, mitochondrial (P86926 whole entry): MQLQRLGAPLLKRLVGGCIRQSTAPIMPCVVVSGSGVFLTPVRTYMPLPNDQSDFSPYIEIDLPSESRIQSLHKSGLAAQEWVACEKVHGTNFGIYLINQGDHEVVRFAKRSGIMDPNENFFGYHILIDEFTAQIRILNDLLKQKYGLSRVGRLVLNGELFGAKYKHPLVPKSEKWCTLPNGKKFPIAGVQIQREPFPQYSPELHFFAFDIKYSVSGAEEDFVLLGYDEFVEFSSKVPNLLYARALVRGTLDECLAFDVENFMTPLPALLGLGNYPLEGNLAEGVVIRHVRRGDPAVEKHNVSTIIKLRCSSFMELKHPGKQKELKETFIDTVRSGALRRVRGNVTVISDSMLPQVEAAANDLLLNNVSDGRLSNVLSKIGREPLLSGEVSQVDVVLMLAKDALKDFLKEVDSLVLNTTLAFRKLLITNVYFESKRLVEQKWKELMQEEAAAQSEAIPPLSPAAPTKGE
smiles,measurement,setting,value
COC(=O)C1=C(C)N(Cc2ccccc2C(F)(F)F)C(NCc2ccc(C(F)(F)F)cc2)=NC1c1cccc(F)c1 (centres undefined),IC50,[1],> 96.6 µM (inactive)
COc1ccccc1CN1CC[C@@H]2[C@H]1c1cc(C#Cc3ccccc3)ccc1N[C@@H]2CO,AC50,[2],46.8 µM (active)
N#C[C@@H]1[C@H](c2ccc(C3=CCCC3)cc2)[C@@H](CO)N1C(=O)NC1CCCC1,AC50,[3],395 nM (active)
same,AC50,[4],647 nM (active)
same,AC50,[5],82 µM (active)
same,AC50,[6],694 nM (active)
same,AC50,[7],615 nM (active)
same,AC50,[8],15.8 µM (active)
Cc1cc(C)c2sc(NNC(=O)c3ccc(S(=O)(=O)N4CCc5ccccc5C4)cc3)nc2c1,IC50,[9],42.2 µM (active)
same,AC50,[10],43.4 µM (active)
same,EC50,[11],1.22 µM (active)
same,AC50,[12],33.1 µM (active)
same,AC50,[13],10.3 µM (active)
same,EC50,[14],1.82 µM (active)
same,AC50,Paired box protein Pax-8,2.27 µM (active)
same,AC50,[15],6.67 µM (active)
same,AC50,[16],1.8 µM (active)
same,IC50,[17],7.44 µM (active)
same,AC50,[18],12.4 µM (active)
same,AC50,INS1,1.36 µM (active)
same,AC50,[19],20.8 µM (active)
same,EC50,[20],1.29 µM (active)
same,AC50,[21],8.92 µM (active)
same,AC50,[22],4.85 µM (active)
same,AC50,[23],1.35 µM (active)
same,EC50,cells [24],> 350 µM (not active)
same,AC50,[25],6.31 µM (active)
same,EC50,cells [26],41.8 µM (active)
same,EC50,[27],> 100 µM (inactive)
same,EC50,Streptococcus,3.44 µM (active)
same,AC50,[28],3.1 µM (active)
same,AC50,[29],19.2 µM (active)
CCOc1ccc(S(=O)(=O)NCc2ccccn2)cc1,AC50,[30],> 70 µM (inactive)
same,AC50,[31],> 70 µM (inactive)
